Data published in ChEMBL document CHEMBL4177650, “Synthesis and biological evolution of hydrazones derived from 4-(trifluoromethyl)benzohydrazide” (Bioorg Med Chem Lett, 2017).
Values after ≈ are worked out from the molar mass of the structure shown. Active and inactive are the calls of the source. No cut-off for these calls is given here.

Tests used:
[1] = system: Mycobacterium tuberculosis; test: Antimycobacterial activity against Mycobacterium tuberculosis H37Rv 331/88 after 14 days by micromethod; type: functional; settings: H37Rv 331/88, 336 h
Mycobacterium kansasii [2] = test: Antimycobacterial activity against Mycobacterium kansasii 6509/80 after 7 days by micromethod; type: functional; settings: 6509/80, 168 h
[3] = system: Trichophyton mentagrophytes; test: Antifungal activity against Trichophyton mentagrophytes 445 after 120 hrs by microdilution broth method; type: functional; settings: Trichophyton mentagrophytes, 445, 120 h
Enterococcus faecalis [4] = test: Antibacterial activity against gram-positive Enterococcus faecalis J 14365/08 after 48 hrs by microdilution broth method; type: functional; settings: J 14365/08, 48 h
[5] = system: Staphylococcus epidermidis; test: Antibacterial activity against gram-positive Staphylococcus epidermidis H 6966/08 after 48 hrs by microdilution broth method; type: functional; settings: H 6966/08, 48 h
[6] = system: Staphylococcus epidermidis; test: Antibacterial activity against gram-positive Staphylococcus epidermidis H 6966/08 after 24 hrs by microdilution broth method; type: functional; settings: H 6966/08, 24 h
[7] = system: Mycobacterium tuberculosis; test: Antimycobacterial activity against Mycobacterium tuberculosis H37Rv 331/88 after 21 days by micromethod; type: functional; settings: H37Rv 331/88, 504 h
Staphylococcus aureus [8] = test: Antibacterial activity against gram-positive Staphylococcus aureus CCM 4516/08 after 48 hrs by microdilution broth method; type: functional; settings: CCM 4516/08, 48 h
Staphylococcus aureus [9] = test: Antibacterial activity against gram-positive Staphylococcus aureus CCM 4516/08 after 24 hrs by microdilution broth method; type: functional; settings: CCM 4516/08, 24 h
Escherichia coli [10] = test: Antibacterial activity against gram-negative Escherichia coli CCM 4517 after 24 hrs by microdilution broth method; type: functional; settings: CCM 4517, 24 h
Pichia kudriavzevii [11] = test: Antifungal activity against Candida krusei E28 after 24 hrs by microdilution broth method; type: functional; settings: E28, 24 h
Mycobacterium kansasii [12] = test: Antimycobacterial activity against Mycobacterium kansasii 6509/96 after 7 days by micromethod; type: functional; settings: 6509/96, 168 h
Mycobacterium kansasii [13] = test: Antimycobacterial activity against Mycobacterium kansasii 6509/80 after 14 days by micromethod; type: functional; settings: 6509/80, 336 h
Escherichia coli [14] = test: Antibacterial activity against gram-negative Escherichia coli CCM 4517 after 48 hrs by microdilution broth method; type: functional; settings: CCM 4517, 48 h
[15] = system: Trichophyton mentagrophytes; test: Antifungal activity against Trichophyton mentagrophytes 445 after 72 hrs by microdilution broth method; type: functional; settings: Trichophyton mentagrophytes, 445, 72 h
Staphylococcus aureus [16] = test: Antibacterial activity against gram-positive methicillin-resistant Staphylococcus aureus H 5996/08 after 24 hrs by microdilution broth method; type: functional; settings: H 5996/08, 24 h
Mycobacterium kansasii [17] = test: Antimycobacterial activity against Mycobacterium kansasii 6509/96 after 21 days by micromethod; type: functional; settings: 6509/96, 504 h
Mycobacterium avium [18] = test: Antimycobacterial activity against Mycobacterium avium 330/88 after 21 days by micromethod; type: functional; settings: 330/88, 504 h
Nakaseomyces glabratus [19] = test: Antifungal activity against Candida glabrata 20/I after 24 hrs by microdilution broth method; type: functional
Candida tropicalis [20] = test: Antifungal activity against Candida tropicalis 156 after 48 hrs by microdilution broth method; type: functional; settings: Candida tropicalis, 156, 48 h
Mycobacterium kansasii [21] = test: Antimycobacterial activity against Mycobacterium kansasii 6509/80 after 21 days by micromethod; type: functional; settings: 6509/80, 504 h
Pichia kudriavzevii [22] = test: Antifungal activity against Candida krusei E28 after 48 hrs by microdilution broth method; type: functional; settings: E28, 48 h
Staphylococcus aureus [23] = test: Antibacterial activity against gram-positive methicillin-resistant Staphylococcus aureus H 5996/08 after 48 hrs by microdilution broth method; type: functional; settings: H 5996/08, 48 h
Mycobacterium kansasii [24] = test: Antimycobacterial activity against Mycobacterium kansasii 6509/96 after 14 days by micromethod; type: functional; settings: 6509/96, 336 h
Candida tropicalis [25] = test: Antifungal activity against Candida tropicalis 156 after 24 hrs by microdilution broth method; type: functional; settings: Candida tropicalis, 156, 24 h
Nakaseomyces glabratus [26] = test: Antifungal activity against Candida glabrata 20/I after 48 hrs by microdilution broth method; type: functional
Enterococcus faecalis [27] = test: Antibacterial activity against gram-positive Enterococcus faecalis J 14365/08 after 24 hrs by microdilution broth method; type: functional; settings: J 14365/08, 24 h
Mycobacterium avium [28] = test: Antimycobacterial activity against Mycobacterium avium 330/88 after 14 days by micromethod; type: functional; settings: 330/88, 336 h
[29] = Solubility of the compound in Mueller-Hinton broth; type: physicochemical
[30] = Selectivity index, ratio of IC50 for human HepG2 cells to MIC for Mycobacterium tuberculosis H37Rv 331/88; type: toxicity; settings: read-out: Selectivity Index
MONO-MAC-6 [31] = test: Cytotoxicity against human MONO-MAC-6 cells after overnight incubation by MTT assay; type: functional, cell-based
HepG2 [32] = test: Cytostatic activity against human HepG2 cells incubated overnight followed by compound wash measured after 72 hrs by MTT assay; type: ADME, cell-based; settings: HepG2, 72 h
[33] = Cytotoxicity against mouse bone marrow macrophages after overnight incubation by MTT assay; settings: BMDM
MONO-MAC-6 [34] = test: Cytostatic activity against human MONO-MAC-6 cells incubated overnight followed by compound wash measured after 72 hrs by MTT assay; type: ADME, cell-based; settings: MONO-MAC-6, 72 h
HepG2 [35] = test: Cytotoxicity against human HepG2 cells after overnight incubation by MTT assay; type: cell-based
Klebsiella pneumoniae [36] = test: Antibacterial activity against extended spectrum beta-lactamase-positive Klebsiella pneumoniae J 14368/08 after 24 to 48 hrs by microdilution broth method; type: functional, organism-based
Pseudomonas aeruginosa = test: Antibacterial activity against gram-negative Pseudomonas aeruginosa CCM 1961 after 48 hrs by microdilution broth method; type: functional, organism-based
Klebsiella pneumoniae [37] = test: Antibacterial activity against gram-negative Klebsiella pneumoniae D 11750/08 after 24 to 48 hrs by microdilution broth method; type: functional, organism-based
Candida albicans = test: Antifungal activity against Candida albicans ATCC 44859 after 24 to 48 hrs by microdilution broth method; type: functional, organism-based
Lichtheimia corymbifera = test: Antifungal activity against Absidia corymbifera 272 after 24 to 48 hrs by microdilution broth method; type: functional, organism-based
Trichosporon asahii = test: Antifungal activity against Trichosporon asahii 1188 after 24 to 48 hrs by microdilution broth method; type: functional, organism-based
Aspergillus fumigatus = test: Antifungal activity against Aspergillus fumigatus 231 after 24 to 48 hrs by microdilution broth method; type: functional, organism-based

Structure (SMILES)	MIC [1] [µM]	MIC (Mycobacterium kansasii [2]) [µM]	MIC [7] [µM]	MIC (Mycobacterium kansasii [12]) [µM]	MIC (Mycobacterium kansasii [13]) [µM]	MIC (Mycobacterium kansasii [17]) [µM]	MIC (Mycobacterium avium [18]) [µM]	MIC (Mycobacterium kansasii [21]) [µM]	MIC (Mycobacterium kansasii [24]) [µM]	MIC (Mycobacterium avium [28]) [µM]	solubility [29]	further results
NNC(=O)c1ccc(C(F)(F)F)cc1	250 (≈ 51 µg/mL)	> 250	500 (≈ 102 µg/mL)	> 250	> 250	> 250	> 500	> 250	> 250	> 500	–	MIC [3]: > 500 µM; MIC (Enterococcus faecalis [4]): > 500 µM; MIC [5]: > 500 µM; MIC [6]: > 500 µM; MIC (Staphylococcus aureus [8]): > 500 µM; MIC (Staphylococcus aureus [9]): > 500 µM; MIC (Escherichia coli [10]): > 500 µM; MIC (Pichia kudriavzevii [11]): > 500 µM; MIC (Escherichia coli [14]): > 500 µM; MIC [15]: > 500 µM; MIC (Staphylococcus aureus [16]): > 500 µM; MIC (Nakaseomyces glabratus [19]): > 500 µM; MIC (Candida tropicalis [20]): > 500 µM; MIC (Pichia kudriavzevii [22]): > 500 µM; MIC (Staphylococcus aureus [23]): > 500 µM; MIC (Candida tropicalis [25]): > 500 µM; MIC (Nakaseomyces glabratus [26]): > 500 µM; MIC (Enterococcus faecalis [27]): > 500 µM
O=C(NN=C1CCCCC1)c1ccc(C(F)(F)F)cc1	250 (≈ 71.1 µg/mL)	500 (≈ 142 µg/mL)	500 (≈ 142 µg/mL)	500 (≈ 142 µg/mL)	> 1000	1000 (≈ 284 µg/mL)	> 125	> 1000	1000 (≈ 284 µg/mL)	> 125	–	–
NNC(=O)c1ccncc1 [ISONIAZID]	0.5 (≈ 0.0686 µg/mL)	> 250	1 (≈ 0.137 µg/mL)	8 (≈ 1.1 µg/mL)	> 250	8 (≈ 1.1 µg/mL)	> 250	> 250	8 (≈ 1.1 µg/mL)	> 250	–	–
O=C(N/N=C/c1ccc(Br)cc1)c1ccc(C(F)(F)F)cc1	–	–	–	–	–	–	–	–	–	–	Insoluble	–
CC12CCC(C/C1=N\NC(=O)c1ccc(C(F)(F)F)cc1)C2(C)C (stereo not drawn)	4 (≈ 1.35 µg/mL)	> 250	4 (≈ 1.35 µg/mL)	> 250	> 250	> 250	> 250	> 250	> 250	> 250	Insoluble	selectivity ratio [30]: > 25; IC50 (MONO-MAC-6 [31]): > 100 µM; IC50 (HepG2 [32]): > 100 µM; IC50 [33]: > 100 µM; IC50 (MONO-MAC-6 [34]): > 100 µM; IC50 (HepG2 [35]): > 100 µM
O=C(N/N=C/c1cccc(O)c1)c1ccc(C(F)(F)F)cc1	250 (≈ 77.1 µg/mL)	62.5 (≈ 19.3 µg/mL)	250 (≈ 77.1 µg/mL)	250 (≈ 77.1 µg/mL)	125 (≈ 38.5 µg/mL)	500 (≈ 154 µg/mL)	250 (≈ 77.1 µg/mL)	250 (≈ 77.1 µg/mL)	500 (≈ 154 µg/mL)	250 (≈ 77.1 µg/mL)	–	Activity (Klebsiella pneumoniae [36]): inactive; Activity (Pseudomonas aeruginosa): inactive; Activity (Klebsiella pneumoniae [37]): inactive; Activity (Candida albicans): inactive; Activity (Lichtheimia corymbifera): inactive; Activity (Trichosporon asahii): inactive; Activity (Aspergillus fumigatus): inactive
